Laboratory results taken from publication PMC8187479, “Sugar phosphate activation of the stress sensor eIF2B” (Nature Communications, 2021).

Each molecule was assayed against T1, eIF2Bα (Homo sapiens, UniProt Q14232) (assay: MIDAS (mass spectrometry integrated with equilibrium dialysis) metabolite binding screen). Conditions: MIDAS metabolite binding screen with eIF2Bα; sheet "eIF2Ba".
T1 construct: made in house; host or cells: E. coli BL21(DE3)
T1 sequence (Q14232 1-305): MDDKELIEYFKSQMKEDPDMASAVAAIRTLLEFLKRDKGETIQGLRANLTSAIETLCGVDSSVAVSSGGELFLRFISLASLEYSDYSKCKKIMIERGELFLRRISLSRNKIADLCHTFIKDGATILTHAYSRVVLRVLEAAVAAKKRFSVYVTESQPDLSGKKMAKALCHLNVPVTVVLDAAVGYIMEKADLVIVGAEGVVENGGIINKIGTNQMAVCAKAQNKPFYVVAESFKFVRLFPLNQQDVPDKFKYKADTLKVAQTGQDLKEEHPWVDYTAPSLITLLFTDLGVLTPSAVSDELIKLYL
In short: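 Hits called at Storey q < 0.1 on z-scores of PCA-corrected log2 fold change between protein and metabolite chambers, quantified by FIA-MS in triplicate.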

Row | SMILES | log2(corrected fold change)
1 | O=C(CO)N[C@H]1[C@H]([C@H](O)[C@H](O)CO)OC(O)(C(=O)O)C[C@@H]1O (some centres unmarked) [N-Glycolylneuraminic acid] | -0.02217
2 | NC(=O)C1=CN([C@@H]2O[C@H](COP(=O)(O)OP(=O)(O)OC[C@H]3O[C@@H](n4cnc5c(N)ncnc54)[C@H](O)[C@@H]3O)[C@@H](O)[C@H]2O)C=CC1 [NADH] | 0.1674
3 | NC(=O)c1ccc[n+]([C@@H]2O[C@H](COP(=O)([O-])OP(=O)(O)OC[C@H]3O[C@@H](n4cnc5c(N)ncnc54)[C@H](OP(=O)(O)O)[C@@H]3O)[C@@H](O)[C@H]2O)c1 [NADP] | 0.02005
4 | CC(=O)NCCCC[C@H](N)C(=O)O [Ne-Acetyl-lysine] | -0.03422
5 | NC(=O)c1ccc[n+]([C@@H]2O[C@H](COP(=O)([O-])OP(=O)(O)OC[C@H]3O[C@@H](n4cnc5c(N)ncnc54)[C@H](O)[C@@H]3O)[C@@H](O)[C@H]2O)c1 [Nicotinamide adenine dinucleotide] | -0.063
6 | CCCCCCCC(=O)O [Octanoic acid] | -0.007345
7 | CCCCCCCC(=O)SCCNC(=O)CCNC(=O)C(O)C(C)(C)COP(=O)(O)OP(=O)(O)OC[C@H]1O[C@@H](n2cnc3c(N)ncnc32)[C@H](O)[C@@H]1OP(=O)(O)O (some centres unmarked) [Octanoyl coenzyme A] | 0.3691
8 | NCCc1ccccc1 [Phenethylamine] | -0.07261
9 | CN(CC(=O)O)C(=N)NP(=O)(O)O [Phosphocreatine] | -0.03403

More lines, now with the values ahead:

Row | log2(corrected fold change) | SMILES
10 | -0.05912 | CCCCCC(=O)NCC(=O)O [N-Hexanoyl-glycine]
11 | -0.07333 | CC(C)CC(=O)NCC(=O)O [N-Isovalerylglycine]
12 | -0.03422 | CC(=O)N[C@@H](CCCCN)C(=O)O [Nalpha-Acetyl-L-lysine]
13 | 0.01938 | N[C@@H](COP(=O)(O)O)C(=O)O [O-Phospho-L-serine]
14 | 0.0165 | CC(C)(CO)[C@@H](O)C(=O)NCCC(=O)O [Pantothenic acid]

Same assay, conditions: MIDAS screen, sheet eIF2Ba; metabolites screened in pools 1-4; p-value and q-value given

Row | SMILES | log2(corrected fold change)
15 | O=CNc1ccccc1C(=O)O [N-Formylanthranilic acid] | 0.2026
16 | NC(=O)C1=CN([C@@H]2O[C@H](COP(=O)(O)OP(=O)(O)OC[C@H]3O[C@@H](n4cnc5c(N)ncnc54)[C@H](OP(=O)(O)O)[C@@H]3O)[C@@H](O)[C@H]2O)C=CC1 [NADPH] | -0.8133
17 | NC(=O)c1ccc[n+](C2OC(COP(=O)(O)OP(=O)(O)OCC3OC(n4cnc5c(=O)[nH]cnc54)C(O)C3O)C(O)C2O)c1 (centres unmarked) [Nicotinamide hypoxanthine dinucleotide] | 0.06307
18 | NC(=O)c1ccc[n+]([C@@H]2O[C@H](COP(=O)([O-])O)[C@@H](O)[C@H]2O)c1 [Nicotinamide ribotide] | 1.511
19 | NC(=O)c1cccnc1 [Nicotinamide] | -0.1042
20 | O=C(O)c1cccnc1 [Nicotinic acid] | -0.1307
21 | CC(=O)O[C@H](CC(=O)[O-])C[N+](C)(C)C [O-Acetyl-L-carnitine] | -0.03661
22 | NCCOP(=O)(O)O [O-Phosphorylethanolamine] | 0.1876
23 | O=C(O)c1cc(=O)[nH]c(=O)[nH]1 [Orotic acid] | 0.07847
24 | C[N+](C)(C)CCOP(=O)(O)O [Phosphocholine] | -0.0156
25 | CCC(=O)SCCNC(=O)CCNC(=O)[C@H](O)C(C)(C)COP(=O)(O)OP(=O)(O)OC[C@H]1O[C@@H](n2cnc3c(N)ncnc32)[C@H](O)[C@@H]1OP(=O)(O)O [Propionyl coenzyme A] | 0.4521

Next, values leading:

Row | log2(corrected fold change) | SMILES
26 | 0.1095 | O=C(O)CC(=O)C(=O)O [Oxaloacetic acid]
27 | 0.07604 | O=C(O)CNC(=O)Cc1ccccc1 [Phenylacetylglycine]
28 | 0.02641 | O=C(O)C(=O)Cc1ccccc1 [Phenylpyruvate]
29 | -0.05886 | NCc1[nH]cc(CCC(=O)O)c1CC(=O)O [Porphobilinogen]
